What follows are molecules tested on HUVECs (assay: Thrombin induced stress fiber formation in endothelial cells). Settings: aminosterol 20 μM, thrombin 20 ng/ml, 2 hours.
Type: cell-based, human
Experimental: The basic methods have been published (Williams, […] et al. 2001). HUVECs were grown on fibronectin-covered coverslips in EGM medium. […] Following a rinse, the cells were exposed to a 1:400 dilution of an FITC-goat antimurine antibody and 250 ng/ml TRITC phalloidin. The stained coverslips were visualized by fluorescence microscopy.

Structure (SMILES) | Disruption of thrombin induced stress fiber formation
CC(C)[C@@H](CC[C@@H](C)[C@H]1CC[C@H]2[C@@H]3[C@@H](O)C[C@H]4C[C@@H](NCCCNCCCCN)CC[C@]4(C)[C@H]3CC[C@]12C)OS(=O)(=O)O [Compound A] | disrupt thrombin induced stress fiber formation and inhibited thrombin-induced stress fiber formation and Yes
CC(C)[C@@H](CC[C@@H](C)[C@H]1CC[C@H]2[C@@H]3[C@H](O)C[C@H]4C[C@@H](NCCCOCCCN)CC[C@]4(C)[C@H]3CC[C@]12C)OS(=O)(=O)O [Compound F] | not observed and No
CC(C)[C@@H](CC[C@H](C)[C@H]1CC[C@H]2[C@@H]3[C@H](O)C[C@H]4C[C@@H](NCCCNCCCCN)CC[C@]4(C)[C@H]3CC[C@]12C)OS(=O)(=O)O [Compound D] | not observed and inactive and No
CC(C)[C@@H](CC[C@@H](C)[C@H]1CC[C@H]2[C@@H]3[C@H](O)C[C@H]4C[C@H](NCCCNCCCCN)CC[C@]4(C)[C@H]3CC[C@]12C)OS(=O)(=O)O [Compound B] | disrupt thrombin induced stress fiber formation and inhibited thrombin-induced stress fiber formation and Yes
CC(C)[C@H](CC[C@@H](C)[C@H]1CC[C@H]2[C@@H]3[C@H](O)C[C@H]4C[C@@H](NCCCNCCCCN)CC[C@]4(C)[C@H]3CC[C@]12C)OS(=O)(=O)O [Compound C] | disrupt thrombin induced stress fiber formation and inhibited thrombin-induced stress fiber formation and Yes
CC(C)[C@@H](CC[C@@H](C)[C@H]1CC[C@H]2[C@@H]3[C@H](O)C[C@H]4CC(N)CC[C@]4(C)[C@H]3CC[C@]12C)OS(=O)(=O)O (stereo partly drawn) [Compound E] | not observed and No

Reference: US20200000825A1, “METHODS AND COMPOSITIONS FOR TREATING AND PREVENTING VIRAL INFECTIONS” (ENTERIN LABORATORIES, INC., priority 2009, published 2020)
